Converted amounts (≈) assume the structure as drawn. Read-outs that look alike come from different tables or passages of the source.
What was measured:
Format in all cases: cell-based
S. schottmuelleri UC 126 [1] = test: standard disc plate assay, zones of inhibition; conditions: 12.5 mm paper discs; for zone of inhibition at 100 µg/mL: 0.1 mg/ml; for zone of inhibition at 1000 µg/mL: 1 mg/ml
Summary of the method: (§1)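 Zones of inhibition serve as the read-out, measured in a standard in vitro disc plate test using 12.5 mm paper discs.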

S. gallinarum UC 265 = test: standard disc plate assay, zones of inhibition; conditions: for Zones of Inhibition: 12.5 mm paper discs, Table II
Summary of the method: as §1

K. pneumoniae UC 57 = test: standard disc plate assay, zones of inhibition; conditions: Klebsiella pneumoniae, 12.5 mm paper discs; for zone of inhibition at 100 µg/mL: UC57, read-out: Zones of Inhibition, 0.1 mg/ml; for zone of inhibition at 1000 µg/mL: UC57, read-out: Zones of Inhibition, 1 mg/ml
Summary of the method: as §1

E. coli UC 51 = test: standard disc plate assay, zones of inhibition; conditions: Escherichia coli, 12.5 mm paper discs; for zone of inhibition at 100 µg/mL: UC51, read-out: Zones of Inhibition, 0.1 mg/ml; for zone of inhibition at 1000 µg/mL: UC51, read-out: Zones of Inhibition, 1 mg/ml
Summary of the method: as §1

B. subtilis UC 564 = test: standard disc plate assay, zones of inhibition; conditions: Bacillus subtilis, 12.5 mm paper discs; for zone of inhibition at 100 µg/mL: UC564, read-out: Zones of Inhibition, 0.1 mg/ml; for zone of inhibition at 1000 µg/mL: UC564, read-out: Zones of Inhibition, 1 mg/ml
Summary of the method: as §1

B. cereus UC 3145 = test: standard disc plate assay, zones of inhibition; conditions: Bacillus cereus, 12.5 mm paper discs; for zone of inhibition at 100 µg/mL: UC3145, read-out: Zones of Inhibition, 0.1 mg/ml; for zone of inhibition at 1000 µg/mL: UC3145, read-out: Zones of Inhibition, 1 mg/ml
Summary of the method: as §1

P. vulgaris UC 93 [2] = test: standard disc plate assay, zones of inhibition; conditions: Proteus vulgaris, 12.5 mm paper discs; for zone of inhibition at 100 µg/mL: UC93, read-out: Zones of Inhibition, 0.1 mg/ml; for zone of inhibition at 1000 µg/mL: UC93, read-out: Zones of Inhibition, 1 mg/ml
Summary of the method: as §1

S. schottmuelleri UC 126 [3] = test: standard microplate test in BHI Agar; conditions: 37°, 20 hours
Summary of the method: (§2)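 Starting from 1 mg./ml., compounds and their dilutions go into a standard microplate test in Brain Heart Infusion agar. Incubation runs at 37°, with end points read after 20 hours.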

S. pyogenes UC 152 = test: standard microplate test in BHI Agar; conditions: Streptococcus pyogenes, UC152, 20 h
Summary of the method: as §2

E. coli UC 45 = test: standard microplate test in BHI Agar; conditions: Escherichia coli, UC45, 37°, 20 hours, Table III, read-out: Minimum Inhibitory Concentration
Summary of the method: as §2

S. flexneri UC 143 = test: standard microplate test in BHI Agar; conditions: Shigella flexneri, UC143, 37°, 20 hours
Summary of the method: as §2

S. marcescens UC 131 = test: standard microplate test in BHI Agar; conditions: Serratia marcescens, UC131, 20 h
Summary of the method: as §2

Ps. aeruginosa UC 95 = test: standard microplate test in BHI Agar; conditions: Pseudomonas aeruginosa, UC95, 20 h
Summary of the method: as §2

S. faecalis UC 694 = test: standard microplate test in BHI Agar; conditions: Enterococcus faecalis, UC694, 20 h
Summary of the method: as §2

P. mirabilis UC 6671 = test: standard microplate test in BHI Agar; conditions: Proteus mirabilis, UC6671, 20 h
Summary of the method: (§3)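 End points are read after 20 hours of incubation at 37°. The medium is Brain Heart Infusion agar in a standard microplate format. Compounds are tested at 1 mg./ml. and at dilutions of that level.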

E. coli UC 311 = test: standard microplate test in BHI Agar; conditions: Escherichia coli, UC311, 20 h, read-out: Minimal Inhibitory Concentration
Summary of the method: as §2

K. pneumoniae UC 58 = test: standard microplate test in BHI Agar; conditions: Klebsiella pneumoniae, UC58, 20 h
Summary of the method: as §2

S. pneumoniae I UC 41 = test: standard microplate test in BHI Agar; conditions: Streptococcus pneumoniae, UC41, 20 h
Summary of the method: as §3

P. rettgeri UC 339 = test: standard microplate test in BHI Agar; conditions: Providencia rettgeri, UC339, 20 h
Summary of the method: as §2

P. morganii UC 3186 = test: standard microplate test in BHI Agar; conditions: Morganella morganii, UC3186, 20 h
Summary of the method: as §2

S. typhi UC 215 = test: standard microplate test in BHI Agar; conditions: Salmonella enterica, BHI Agar, 37°, 20 hours
Summary of the method: as §3

S. aureus UC 76 = test: standard microplate test in BHI Agar; conditions: Staphylococcus aureus, UC76, 20 h
Summary of the method: as §2

P. vulgaris UC 93 [4] = test: standard microplate test in BHI Agar; conditions: Proteus vulgaris, UC93, 20 h
Summary of the method: as §2

[5] = Salmonella enterica, read-out: Zones of Inhibition
[6] = Table III, read-out: Minimum Inhibitory Concentration
[7] = Table IV, read-out: Minimal Inhibitory Concentration
[8] = read-out: Minimal Inhibitory Concentration
[9] = read-out: Minimum Inhibitory Concentration

Question: For `NC[C@H]1O[C@H](O[C@H]2[C@H](O)[C@@H](O)[C@H](N)C[C@@H]2N)[C@H](N)[C@@H](O)[C@@H]1O` [Neamine], which zone of inhibition at 100 µg/mL (S. schottmuelleri UC 126 [1]; Table I) is on record?
Answer: 16 mm

Question: And the zone of inhibition at 100 µg/mL (S. schottmuelleri UC 126 [1]; Table II)?
Answer: 15 mm

Question: And the zone of inhibition at 1000 µg/mL (S. schottmuelleri UC 126 [1]; Table I)?
Answer: 24 mm

Question: And the zone of inhibition at 1000 µg/mL (S. schottmuelleri UC 126 [1]; Table II)?
Answer: 23 mm

Question: And the “Zones of Inhibition” value (S. gallinarum UC 265; 0.1 mg/ml)?
Answer: 19 mm

Question: What about the “Zones of Inhibition” value (S. gallinarum UC 265; 1 mg/ml) of the same compound?
Answer: 29 mm

Question: And the zone of inhibition at 100 µg/mL (S. gallinarum UC 265; [5])?
Answer: 19 mm

Question: What about the zone of inhibition at 1000 µg/mL (S. gallinarum UC 265; [5]) of the same compound?
Answer: 29 mm

Question: What about the zone of inhibition at 100 µg/mL (K. pneumoniae UC 57; Table I) of the same compound?
Answer: 27 mm

Question: And the zone of inhibition at 100 µg/mL (K. pneumoniae UC 57; Table II)?
Answer: 26 mm

Question: What about the zone of inhibition at 1000 µg/mL (K. pneumoniae UC 57; Table I) of the same compound?
Answer: 34 mm

Question: What about the zone of inhibition at 1000 µg/mL (K. pneumoniae UC 57; Table II) of the same compound?
Answer: 32 mm

Question: And the zone of inhibition at 100 µg/mL (E. coli UC 51; Table I)?
Answer: 19 mm

Question: And the zone of inhibition at 100 µg/mL (E. coli UC 51; Table II)?
Answer: 18 mm

Question: And the zone of inhibition at 1000 µg/mL (E. coli UC 51; Table I)?
Answer: 27 mm

Question: What about the zone of inhibition at 1000 µg/mL (E. coli UC 51; Table II) of the same compound?
Answer: 25 mm

Question: What about the zone of inhibition at 100 µg/mL (B. subtilis UC 564; Table I) of the same compound?
Answer: 30 mm

Question: And the zone of inhibition at 100 µg/mL (B. subtilis UC 564; Table II)?
Answer: 28 mm

Question: What about the zone of inhibition at 1000 µg/mL (B. subtilis UC 564; Table I) of the same compound?
Answer: 39 mm

Question: And the zone of inhibition at 1000 µg/mL (B. subtilis UC 564; Table II)?
Answer: 37 mm

Question: And the zone of inhibition at 100 µg/mL (B. cereus UC 3145; Table I)?
Answer: 15 mm

Question: What about the zone of inhibition at 100 µg/mL (B. cereus UC 3145; Table II) of the same compound?
Answer: 15 mm

Question: What about the zone of inhibition at 1000 µg/mL (B. cereus UC 3145; Table I) of the same compound?
Answer: 24 mm

Question: And the zone of inhibition at 1000 µg/mL (B. cereus UC 3145; Table II)?
Answer: 23 mm

Question: And the zone of inhibition at 100 µg/mL (P. vulgaris UC 93 [2]; Table I)?
Answer: 18 mm

Question: What about the zone of inhibition at 100 µg/mL (P. vulgaris UC 93 [2]; Table II) of the same compound?
Answer: 15 mm

Question: And the zone of inhibition at 1000 µg/mL (P. vulgaris UC 93 [2]; Table I)?
Answer: 27 mm

Question: And the zone of inhibition at 1000 µg/mL (P. vulgaris UC 93 [2]; Table II)?
Answer: 28 mm

Question: And the MIC (S. schottmuelleri UC 126 [3]; [6])?
Answer: 31.2 µg/mL (≈ 96.8 µM)

Question: And the MIC (S. schottmuelleri UC 126 [3]; [7])?
Answer: 15.6 µg/mL (≈ 48.4 µM)

Question: What about the MIC (S. pyogenes UC 152; [8]) of the same compound?
Answer: 7.8 µg/mL (≈ 24.2 µM)

Question: What about the MIC (S. pyogenes UC 152; [9]) of the same compound?
Answer: 7.8 µg/mL (≈ 24.2 µM)

Question: What about the MIC (E. coli UC 45) of the same compound?
Answer: 62.5 µg/mL (≈ 194 µM)

Question: And the MIC (S. flexneri UC 143; [6])?
Answer: 62.5 µg/mL (≈ 194 µM)

Question: And the MIC (S. flexneri UC 143; [7])?
Answer: 125 µg/mL (≈ 388 µM)

Question: What about the MIC (S. marcescens UC 131; [8]) of the same compound?
Answer: 250 µg/mL (≈ 776 µM)

Question: What about the MIC (S. marcescens UC 131; [9]) of the same compound?
Answer: 250 µg/mL (≈ 776 µM)

Question: And the MIC (Ps. aeruginosa UC 95; [8])?
Answer: > 500 µg/mL

Question: What about the MIC (Ps. aeruginosa UC 95; [9]) of the same compound?
Answer: > 500 µg/mL

Question: What about the MIC (S. faecalis UC 694; [8]) of the same compound?
Answer: > 500 µg/mL

Question: And the MIC (S. faecalis UC 694; [9])?
Answer: > 500 µg/mL

Question: What about the MIC (P. mirabilis UC 6671; [8]) of the same compound?
Answer: 250 µg/mL (≈ 776 µM)

Question: What about the MIC (P. mirabilis UC 6671; [9]) of the same compound?
Answer: 62.5 µg/mL (≈ 194 µM)

Question: What about the MIC (E. coli UC 311) of the same compound?
Answer: 125 µg/mL (≈ 388 µM)

Question: What about the MIC (K. pneumoniae UC 58; [8]) of the same compound?
Answer: 7.8 µg/mL (≈ 24.2 µM)

Question: What about the MIC (K. pneumoniae UC 58; [9]) of the same compound?
Answer: 15.6 µg/mL (≈ 48.4 µM)

Question: What about the MIC (S. pneumoniae I UC 41; [8]) of the same compound?
Answer: 62.5 µg/mL (≈ 194 µM)

Question: And the MIC (S. pneumoniae I UC 41; [9])?
Answer: 62.5 µg/mL (≈ 194 µM)

Question: What about the MIC (P. rettgeri UC 339; [8]) of the same compound?
Answer: > 500 µg/mL

Question: What about the MIC (P. rettgeri UC 339; [9]) of the same compound?
Answer: 250 µg/mL (≈ 776 µM)

Question: And the MIC (P. morganii UC 3186; [8])?
Answer: 31.2 µg/mL (≈ 96.8 µM)

Question: And the MIC (P. morganii UC 3186; [9])?
Answer: 62.5 µg/mL (≈ 194 µM)

Question: What about the MIC (S. typhi UC 215; [6]) of the same compound?
Answer: 15.6 µg/mL (≈ 48.4 µM)

Question: And the MIC (S. typhi UC 215; [7])?
Answer: 31.2 µg/mL (≈ 96.8 µM)

Question: And the MIC (S. aureus UC 76; [8])?
Answer: 7.8 µg/mL (≈ 24.2 µM)

Question: And the MIC (S. aureus UC 76; [9])?
Answer: 3.9 µg/mL (≈ 12.1 µM)

Question: What about the MIC (P. vulgaris UC 93 [4]; [8]) of the same compound?
Answer: 62.5 µg/mL (≈ 194 µM)

Question: What about the MIC (P. vulgaris UC 93 [4]; [9]) of the same compound?
Answer: 62.5 µg/mL (≈ 194 µM)
